Experimental data from patent publication US10201623B2, “HSP90-targeted cardiac imaging and therapy” (Memorial Sloan-Kettering Cancer Center, priority 2013, dated 2019).

Key:
[1] = system: heart muscle; experiment: 124I-PUH71 PET-CT cardiac imaging in patients; type: in vivo, human
Description: Exemplary Procedure Using ^124I-PUH71 (Compound A) The day before the administration of ^124I-PUH71, potassium iodide was administered to the subject to be imaged to minimize the amount of radioactivity in the thyroid. A dose of KI was administered before ^124I-PUH71 was injected in the vein of the arm of the subject through a catheter. A subject was typically administered one tracer-dose of ^124I-PUH71 5% ethanol and 0.9% NaCl, which is < 1/500th of the NOAEL limit derived from rodents using the cold PUH71. A dose of up to 5.5 mCi of ^124I-PUH71 were administered intravenously. ^124I-PUH71 scans were performed immediately, at 3-4 hours, 20-24 hours, and 48-72 hours after injection of the radiotracer. A 30-45 minute scanning time-period is typical for clinical PET studies. Image was acquired on a PET-CT scanner. A low-dose CT was obtained immediately prior to PET imaging; the 0-hour CT is applied to the three PET datasets rapidly-acquired during the first 30 minutes post-injection. Uptake of the PUH71 by heart muscle in 12 patients are illustrated in FIG. 2. The cardiac uptake is plotted on the y-axis, expressed in terms of the standardized uptake value (SUV), here using the SUV mean parameter. The time after injection is plotted on the x-axis, in minutes. Data shown here is from PET scans obtained 0, 10, 20 and ˜180 minutes after tracer injection. […] In 1 patient, the cardiac uptake was less distinct, but the PET imaging methodology was suboptimal compared to the other studies. […] EKG-synchronization, or ‘EKG-gating’, is standard practice in cardiac imaging, for improving the quality of heart-imaging, and it is expected that results will further improve after EKG gating is added. Without intention to be limited by theory, the bits of variation in the SUV could be due to (1) the lack of EKG-gating and (2) the lack of proper attenuation correction. […] The EKG-gating and attenuation correction techniques are standard practice in cardiac nuclear imaging art.

[2] = system: MDA-MB-468 human breast cancer tumors; experiment: micro PET of 124I-PUH71 in mice bearing MDA-MB-468 tumors; type: in vivo
Description: FIG. 4: [^124I]-PUH71 PET in mice bearing a xenografted tumor. a) Representative PET scan of [^124I]-PUH71 in MDA-MB-468 tumor-bearing mice. Location of the tumor is indicated by a red arrow. […] Representative data is shown.
We injected mice bearing MDA-MB-468 human breast cancer tumors with trace amounts of ^124I-PUH71, and imaged with the micro PET at 1, 4 and 24 hours post injection. […] The results are illustrated in FIG. 4.

[3] = stability of 124I-PUH71 in formulation; type: physicochemical; settings: formulated in 5% ethanol in saline (0.9%)
From the text: ^124I-PUH71 was produced in formulation. The radioactive half-life is 4.2 days.

[4] = system: Hsp90; experiment: saturation binding of 131I-PU-H71 in prostate cancer cell lines; settings: several prostate cancer cell lines
[5] = patients, single iv tracer injection, PET-CT

Question: Which “patients whose heart musculature demonstrated visually-distinct uptake” value ([1]; PET scans 0, 10, 20 and ~180 minutes after tracer injection, no EKG-gating) does the source give for `CC(C)NCCCn1c(Sc2cc3c(cc2I)OCO3)nc2c(N)ncnc21` [Compound A] here?
Answer: 11 out of 12

Question: What about the “clearance from the bloodstream” value ([1]; human) of the same molecule?
Answer: rapid clearance

Question: What about the “absorption and retention in the human heart” value ([1]; human heart) of the same molecule?
Answer: rapid absorption and sustained retention

Question: What about the “persistence of visually-distinct cardiac uptake” value [1, 5] of the same molecule?
Answer: 3 to 4 h

Question: And the “time after injection at which uptake in the heart is maximized” value [1, 5]?
Answer: less than 10 minutes

Question: What about the “time for which cardiac signal intensity is maintained” value [1, 5] of the same molecule?
Answer: ≥ 3 h

Question: For `CC(C)NCCCn1c(Sc2cc3c(cc2[124I])OCO3)nc2c(N)ncnc21` [^124I-PUH71], which “clearance from the healthy heart” value ([2]; MDA-MB-468 tumor-bearing mice, heart and blood pool similar profile) is on record?
Answer: rapid clearance

Question: And the “uptake in the heart (PET)” value ([2]; MDA-MB-468 tumor-bearing mice, no cardiac disease expected)?
Answer: no distinct uptake

Question: And the retention in tumors ([2]; micro PET at 1, 4 and 24 hours post injection)?
Answer: retained in tumors even at 24 h p.i.

Question: And the “route of clearance of excess radioligand” value ([2]; tumor-bearing mice)?
Answer: cleared via the liver and GI tract

Question: What about the stability in formulation [3] of the same molecule?
Answer: stable, in formulation, for several days

Question: What does the source list for `CC(C)NCCCn1c(Sc2cc3c(cc2[131I])OCO3)nc2c(N)ncnc21` [^131I-PUH71]?
Answer: selectivity of binding to Hsp90 [4]: bound, selectively; Bmax ([4]; saturable binding): 3 to 7 million sites, per cell
